Assay [1] deals with Vero. Kind of assay: host cell cytotoxicity of antiviral hits, dose response, cytotoxicity control for West Nile virus antiviral project, secondary assay (AID 1650). It is filed as functional. To be noted: Chlorocebus sabaeus.
Assay [2] in a line: inhibitors of intracellular T. cruzi replication, confirmation, NIH3T3 host cells, beta-gal luminescence (AID 2044).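 Note: intracellular parasites grown in NIH/3T3 mouse fibroblasts as host cells; luminescent beta-galactosidase reporter signal from transgenic T. cruzi replicating inside host cells; inhibitors lower the luminescence signal.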 It is filed as functional, cell-based.
Assay [3] relates to Vero. Kind of assay: West Nile virus antiviral activity, cell-based, CPE readout (AID 1621). It is filed as functional. To be noted: Chlorocebus sabaeus.
Assay [4] can be described thus: cytotoxicity toward NIH3T3 fibroblasts, dose response, counter-screen, cell-based, ATP luminescence, mouse fibroblasts (AID 2010).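 Note: cells exposed to compound for about 90 hours before reading.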 It is filed as functional.
The nature of assay [5]: M. tuberculosis growth inhibition, HTS (AID 449762). Format: functional.
Assay [6] in a line: P. falciparum Dd2 growth inhibitors, dose response, SYBR Green, dry powder samples (AID 1159566).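 Note: potency for growth inhibition with lower SYBR green DNA signal.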 It is filed as functional, cell-based.
Assay [7] in a line: P. falciparum 3D7-ScDHODH growth inhibitors, dose response, SYBR Green, dry powder samples (AID 1159570).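 Note: parasite growth measured after 72 hours of compound exposure.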 It is filed as functional, cell-based.
Assay [8] is described as follows: P. falciparum ATP4 D1247Y mutant growth inhibitors, dose response, NITD609-resistant line, SYBR Green, dry powder (AID 1159571).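 Note: parasites synchronized at ring stage by sorbitol before testing.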 Format: functional, cell-based.
Assay [9] can be described thus: P. falciparum Dd2 growth inhibitors, dose response, SYBR Green, cherry-picked samples (AID 1159567). Format: functional, cell-based.
Assay [10] in a line: HepG2 cell cytotoxicity, dose response, cytotoxicity control, cherry-picked samples (AID 1159577). It is filed as functional, cell-based.
Assay [11] is described as follows: Dose-response inhibition of insulin secretion in a rat insulinoma line at 5 mM glucose (AID 1117331). Format: functional, cell-based. To be noted: INS-1E.
Assay [12] is described as follows: Glucagon-like peptide 1 release potency, NCI-H716 cell line, dose-response, half-maximal inhibitory concentration (AID 1117344). Format: functional, cell-based.
The subject of a further assay is P388. Kind of assay: cells. Format: functional. The settings on record: Mus musculus.
Another assay has as its system SN12K1. Kind of assay: cells. Format: functional. To be noted: Homo sapiens.
A further assay concerns P388/ADR. Kind of assay: cells. To be noted: Mus musculus. Format: functional.
Assay [13] is described as follows: half-maximal inhibitory concentration for glucagon-like peptide-1 release, STC-1 cell line, dose-response (AID 1117345). It is filed as functional, cell-based.
The nature of assay [14]: HeLa 4N DNA content increase, dose response, cell-based, IC50 (AID 1117351). Format: functional.
Assay [15] in a line: HeLa 2N DNA content increase, dose response, cell-based, IC50 (AID 1117349). It is filed as functional.

Data on seven compounds can be found in ChEMBL document CHEMBL1201862, “PubChem BioAssay data set” (2004).

The source made the active and inactive calls.

Broadly, the CC50 is the concentration that lowers cell viability or growth by half. What is called EC50 is the concentration at which the effect is half-maximal. What is called IC50 is the point on the concentration scale where inhibition reaches its midpoint. As to `CN1CCc2ccccc2C1Cc1ccccc1NC(=O)c1sc2ccccc2c1Cl` (centres undefined), the CC50 with Vero [1] is > 100 µM (active). For the same compound, the EC50 is 2.73 µM (active) in assay [2] and > 60 µM (not active) in [4]. Besides, the IC50 in the assay with Vero [3] is 41.2 µM (active).

As to `Fc1ccc(N/N=C2/CC(c3ccccc3)Oc3ccccc32)c(F)c1` (centres undefined), the IC50 in assay [5] was > 100 µM (active).

Usually AC50 stands for the midpoint of the concentration-response curve, whichever way the signal moves. On to `O=C(c1cccc(F)c1)N1CC(=O)N2[C@H](C1)[C@@H](c1ccc(-c3cccnc3)cc1)[C@@H]2CO`, for which the AC50 in [6] is 0.088 µM (active); in [7], 0.151 µM (active); in [8], 0.0729 µM (active); in assay [9], 0.331 µM (active).

Regarding `O=C(C1CC1)N1CC(=O)N2[C@H](C1)[C@@H](c1ccc(C#CCc3ccccc3)cc1)[C@@H]2CO`, the AC50 in assay [10] was 35.5 µM (active); in assay [9], 9.21 µM (active).

Regarding `O=C(CCN1CCN2CCCC2C1)N1c2ccccc2Sc2ccc(Cl)cc21` (centres undefined) [AZACLORZINE], the IC50 in assay [11] was 16.8 µM (inactive).

By GI50 is commonly meant the concentration that inhibits growth by half. Consider `CCCCCCCCCCCCCCCCCCOCC(O)CO` (centres undefined) [BATILOL], for which the IC50 in assay [12] and in assay [13] was > 40 µM (inactive) in each case. Also, the GI50 with P388 is 6.65 µM (inactive); with SN12K1, 22.5 µM (inactive); with P388/ADR, 9.82 µM (inactive).

On to `CCCOc1ccc2[nH]c(NC(=O)OC)nc2c1` [OXIBENDAZOLE], for which the IC50 in assay [14] is 0.0567 µM (active); in assay [15], 0.0622 µM (active).
